From article PMC11680018, “Study of Cytotoxicity of Spiro-Fused [3-Azabicyclo[3.1.0]hexane]oxindoles and Cyclopropa[a]pyrrolizidine-oxindoles Against Tumor Cell Lines” (Pharmaceuticals, 2024)
Where two headings read alike, the source gives them in different places.

Columns and labels:
[1] = system: mouse colon carcinoma (CT26) cell line; assay: MTS cell proliferation assay, CT26; type: cell-based; settings: for IC50: Mus musculus, MTS; for SI (selectivity index) CT26: ratio of cytotoxicity PBMC / CT26, calculated at 72 h
Experimental: (§1) Cancer cell lines are valuable in vitro model systems that are widely used in cancer research and drug discovery. Their use is mainly linked to their possibility to provide for experimental purposes an unlimited source of biological material. Here, the 24 and 72 h in vitro MTS assay was used to determine the antiproliferative activity of synthesized spiro-fused cyclopropa[a]pyrrolizidine-2,3′-oxindoles and [3-azabicyclo[3.1.0]hexane]-oxindoles against human erythroleukemia (K562), acute T cell leukemia (Jurkat), cervical carcinoma (HeLa), melanoma (Sk-mel-2), breast cancer adenocarcinoma (MCF-7) as well as mouse colon carcinoma (CT26) cell lines. […] The full results of these investigations are presented in the Supporting Information Figures S1–S6. […] An evaluation of the cytotoxicity of the selected compounds towards normal cells (peripheral blood mononuclear cells) was performed additionally to understand their respective relative selectivities. The selectivity index was obtained using the ratio of measured cytotoxicity between the PBMC cells and each of the cancer cell lines, and the results are presented in Table 3.
(§2) The human erythroleukemia (K-562), cervical carcinoma (HeLa) as well as mouse colon carcinoma (CT26) cell lines were obtained from the Bank of Cell Cultures of the Institute of Cytology of the Russian Academy of Sciences; the human melanoma (Sk-mel-2) cell line was obtained from the Bank of Cell Cultures of the Institute of Cytology and Genetics, Siberian Branch of the Russian Academy of Sciences. The acute T cell leukemia (Jurkat) cell line was obtained from the Bank of Cell Cultures of the Institute of Immunology of the Russian Academy of Medical Sciences. The peripheral blood mononuclear cells (PBMC) were isolated from the blood of healthy donors. K-562, Jurkat, MCF-7, PBMC and CT26 cells were grown on RPMI medium (Hyclone, GE Healthcare Life Sciences, Logan, UT, USA) supplemented with 10% (v/v) fetal bovine serum (Hyclone, GE Healthcare Life Sciences, Logan, UT, USA) and gentamicin (Sigma-Aldrich, St. Louis, MO, USA) at 37 °C in a humidified atmosphere with 5% CO2. HeLa and Sk-mel-2 cells were cultured with the same supplements and conditions in DMEM medium (Hyclone, GE Healthcare Life Sciences, Logan, UT, USA).
(§3) To evaluate the in vitro toxicity of the compounds synthesized, cells were seeded into 96-well plates at a density of 5 × 10^3 cells per well. On the next day, the tested compounds were added to the wells at concentrations ranging from 1 to 30 μg/mL, followed by incubation for 1 and 3 days. Cell proliferation was determined by adding 20 μL of MTS reagent (BioVision, Milpitas, CA, USA) stock solution per well. The plates were incubated for 2 h at 37 °C in a humidified, 5% CO2 atmosphere. The plates were then read at 495 nm using a plate spectrophotometer (Multiskan GO, Thermo Fisher Scientific, Waltham, MA, USA). All samples were measured in triplicate.

[2] = system: cervical carcinoma (HeLa) cell line; assay: MTS cell proliferation assay, HeLa; type: cell-based, human; settings: for IC50: Homo sapiens, HeLa, MTS; for SI (selectivity index) HeLa: ratio of cytotoxicity PBMC / HeLa, calculated at 72 h
Experimental: as §1, §2, §3

[3] = system: human erythroleukemia (K562) cell line; assay: MTS cell proliferation assay, K562; type: cell-based; settings: for IC50: Homo sapiens, MTS; for SI (selectivity index) K562: ratio of cytotoxicity PBMC / K562, calculated at 72 h
Experimental: as §1, §2, §3

[4] = system: human melanoma (Sk-mel-2) cell line; assay: Cell motility by scratch test; type: cell-based; settings: 10 μg/mL, 36 h, serum-free DMEM; nontreated cells 69.5 ± 17.2
Experimental: To assess the potential ability of spiro-fused [3-azabicyclo[3.1.0]hexane]oxindoles 4, 11, 12, 18, 24 and cyclopropa[a]pyrrolizidine-2,3′-oxindole 2 to inhibit metastasis associated with cell motility, a scratch test was performed on the human melanoma (Sk-mel-2) cell line. Different fields were analyzed by bright field, and each scratch area was photographed at 0 and 36 h for non-toxic and fast cell visualization. Nontreated Sk-mel-2 cells filled 69.5 ± 17.2, 41.5 ± 5.3, 59.7 ± 8.1, 49.3 ± 5.3, 43.0 ± 12.6, 26.1 ± 2.5 and 55.9 ± 8.6% of the scratched strip while under treatment with spiro-fused oxindole derivatives 2, 4, 11, 12, 18 and 24 cells, respectively.
Cells were seeded at a density of 5 × 10^5 cells per dish onto petri dishes and grown to confluency. A 200 μL pipette tip was used to make scratch wounds and detached cells were removed after that by washing with phosphate-buffered saline. Culture media was replaced with serum-free DMEM in order to inhibit cell proliferation. Compounds to be screened were added at a dose of 10 μg/mL to the cultures and incubated for 36 h. Different fields were analyzed by bright field, and each scratch area was photographed at 0 and 36 h. Images were captured using an Axio Observer Z1 confocal microscope (Carl Zeiss MicroImaging GmbH, Jena, Germany). The percent of wound closure in five randomly chosen fields was calculated with ImageJ software, 1.52v.

[5] = system: melanoma (Sk-mel-2) cell line; assay: MTS cell proliferation assay, Sk-mel-2; type: cell-based, human; settings: for IC50: Homo sapiens, MTS; for SI (selectivity index) Sk-mel-2: ratio of cytotoxicity PBMC / Sk-mel-2, calculated at 72 h
Experimental: as §1, §2, §3

[6] = system: peripheral blood mononuclear cells (PBMC); assay: MTS cytotoxicity towards normal cells, PBMC; type: cell-based; settings: Homo sapiens
Experimental: as §1, §2, §3

[7] = system: acute T cell leukemia (Jurkat) cell line; assay: MTS cell proliferation assay, Jurkat; type: cell-based, human; settings: for IC50: Homo sapiens, Jurkat, MTS; for SI (selectivity index) Jurkat: ratio of cytotoxicity PBMC / Jurkat, calculated at 72 h
Experimental: as §1, §2, §3

[8] = system: HeLa cells actin cytoskeleton; assay: Actin cytoskeleton staining, confocal microscopy, HeLa; type: cell-based, human; settings: 10 μg/mL, 24 h
Experimental: It was found using confocal microscopy that incubation with spiro-fused [3-azabicyclo[3.1.0]hexane]oxindoles 4, 8, 17, 18, 22, 24 and cyclopropa[a]pyrrolizidine-2,3′-oxindole 2 led to significant changes in the HeLa cells’ actin cytoskeleton structure leading to the disappearance of stress fibers (granular actin was distributed diffusely in the cytoplasm in up to 38% of treated cells) and changes in the number of filopodia-like deformations (reduced from 93% in control cells to 64% after treatment). The impact on the Sk-mel-2 cells’ actin cytoskeleton structure was even greater: granular actin was distributed diffusely in the cytoplasm in up to 90% of treated cells while the number of filopodia-like deformations was reduced by up to 23%. Such changes in the cytoskeleton may indicate a change in the motor activity of cells, which may indicate a decrease in the ability of tumor cells to metastasize.
HeLa cells were seeded at a density of 2 × 10^5 cells per dish onto a petri dish with cover slips and incubated for 24 h. After that, cells were treated with chosen compounds (10 μg/mL) for 24 h. The medium was removed and cells were fixed with 4% paraformaldehyde (Sigma-Aldrich, St. Louis, MO, USA), washed three times with PBS, and permeabilized with 0.3% Triton-X100 (Sigma-Aldrich, St. Louis, MO, USA). The cells were rinsed three times with PBS. Actin filaments (microfilaments) were stained with rhodamine–phalloidin (Invitrogen, Carlsbad, CA, USA) at 37 °C for 15 min. The samples were rinsed three times with PBS, followed by embedding in Fluoroshield medium (Sigma-Aldrich, St. Louis, MO, USA). Cells were imaged using an Axio Observer Z1 confocal microscope (Carl Zeiss MicroImaging GmbH, Jena, Germany). In each experiment, at least 30 cells were imaged. Images were analyzed by a pathologist blinded to the treatment mode used for each group using ImageJ software, 1.52v.

[9] = system: breast cancer adenocarcinoma (MCF-7) cell line; assay: MTS cell proliferation assay, MCF-7; type: cell-based, human; settings: for IC50: Homo sapiens, MTS; for SI (selectivity index) MCF-7: ratio of cytotoxicity PBMC / MCF-7, calculated at 72 h
Experimental: as §1, §2, §3

K562 cells = assay: Cell cycle analysis by flow cytometry; type: cell-based, human; settings: 24 h; for K562 cells in SubG1 phase: control 4.5 ± 0.9; for K562 cells in G2/M phase: control 23.1 ± 1.7; for K562 cells in S phase: control 31.9 ± 1.0; for K562 cells in G0/G1 phase: control 40.5 ± 1.3
Source text: Since growth inhibition may be a result of cell cycle arrest at a particular point, the specific antiproliferative activity of several cycloadducts was further evaluated by flow cytometry to study their impact on the progression of the cell cycle in K562 cells. The assay utilizes propidium iodide-based staining of DNA content to distinguish and measure the accumulation of cells in each cell cycle phase (SubG, G0/G1, S and G2/M).
The distribution of K562 cells in the G0/G1-, S- and G2/M-phases of the cell cycle was obtained by quantification of DNA content using flow cytometry in DAPI-stained cells. Briefly, cells were seeded at a density of 5 × 10^4 cells per well in 24-well plates. […] After incubation with drugs, the cells were harvested by pipetting. This was followed by treatment with 0.2 mg/mL saponin (Fluka, Waltham, MA, USA) and 0.05 mg/mL DAPI (Thermo scientific, Rockford, IL, USA). After washing, the samples were analyzed using a standard flow cytometer (BD FACSCanto II, Becton Dickinson, San Jose, CA, USA). A total of 10,000 events were acquired for the samples. Data processing was performed using the BD FACSDiva 9.0 software.

[10] = read-out: IC50 CT26 24 h, CT26, 24 h
[11] = CT26, 72 h, read-out: IC50 CT26 72 h
[12] = read-out: IC50 K562 24 h, K562, 24 h
[13] = K562, 72 h, read-out: IC50 K562 72 h
[14] = read-out: IC50 Sk-mel-2 24 h, Sk-mel-2, 24 h
[15] = Sk-mel-2, 72 h, read-out: IC50 Sk-mel-2 72 h
[16] = read-out: IC50 Jurkat 24 h, 24 h
[17] = 72 h, read-out: IC50 Jurkat 72 h
[18] = MCF7, read-out: IC50 MCF-7 24 h, MCF-7, 24 h
[19] = MCF7, MCF-7, 72 h, read-out: IC50 MCF-7 72 h

IC50 [1, 10] | IC50 [1, 11] | IC50 ([2]; read-out: IC50 HeLa 24 h, 24 h) | IC50 ([2]; 72 h, read-out: IC50 HeLa 72 h) | IC50 [3, 12] | IC50 [3, 13] | IC50 [5, 14] | IC50 [5, 15] | IC50 [7, 16] | IC50 [7, 17] | IC50 [9, 18] | IC50 [9, 19] | Structure (SMILES) | Part of the scratched strip filled by Sk-mel-2 cells [4] | IC50 ([6]; 72 h, read-out: IC50 PBMC 72 h) | IC50 ([6]; read-out: IC50 PBMC 24 h, 24 h) | SI (selectivity index) Jurkat [7] | SI (selectivity index) CT26 [1] | SI (selectivity index) HeLa [2] | SI (selectivity index) K562 [3] | SI (selectivity index) MCF-7 [9] | other results
> 40 µM | 19 ± 2 µM | 15 ± 2 µM | 22 ± 2 µM | 7 ± 1 µM | 7 ± 1 µM | 33 ± 3 µM | 15 ± 1 µM | – | – | – | – | COC(=O)C1C2(c3ccccc3)C(Cc3c[nH]c4ccccc34)NC3(C(=O)Nc4ccccc43)C12c1ccccc1 (centres unmarked) [Compound 11] | 49.3 ± 5.3% | – | – | – | – | – | – | – | –
– | – | – | – | – | – | – | – | – | – | – | – | COC(=O)C1C2(c3ccccc3)C3CCCN3C3(C(=O)Nc4ccc(Cl)cc43)C12c1ccccc1 (centres unmarked) [Compound 12] | 43.0 ± 12.6% | – | – | – | – | – | – | – | –
> 40 µM | 39 ± 3 µM | > 40 µM | 23 ± 2 µM | > 40 µM | 12 ± 1 µM | > 40 µM | 23 ± 2 µM | 21 ± 2 µM | 4 ± 1 µM | > 40 µM | > 40 µM | CC(C)CC1NC2(C(=O)Nc3ccccc32)C2(c3ccccc3)C(c3ccccc3)C12c1ccccc1 (centres unmarked) [Compound 22] | – | 64 ± 6 µM | 132 ± 16 µM | 16 | 2 | 3 | 5 | 1 | HeLa cells with filopodia-like deformations ([8]; control cells 93%, lowest value over the compounds): ≥ 64%; HeLa cells with granular actin distributed diffusely in the cytoplasm (stress fibers disappeared) ([8]; maximum over the compounds): up to 38%; SI (selectivity index) Sk-mel-2 [5]: 3
> 40 µM | > 40 µM | > 40 µM | > 40 µM | > 40 µM | 21 ± 2 µM | > 40 µM | > 40 µM | 25 ± 2 µM | 12 ± 1 µM | > 40 µM | > 40 µM | CC[C@H](C)C1NC2(C(=O)Nc3ccccc32)C2(c3ccccc3)C(c3ccccc3)C12c1ccccc1 (some centres unmarked) [Compound 23] | – | 165 ± 16 µM | 177 ± 20 µM | 13 | 3 | 3 | 8 | 3 | SI (selectivity index) Sk-mel-2 [5]: 3
19 ± 3 µM | 6 ± 1 µM | 4 ± 1 µM | 1 ± 0.1 µM | 16 ± 3 µM | 1 ± 0.4 µM | – | – | – | – | – | – | COc1cccc2c1C(=O)c1c(O)c3c(c(O)c1C2=O)C[C@@](O)(C(=O)CO)C[C@@H]3O[C@H]1C[C@H](N)[C@H](O)[C@H](C)O1 [Doxorubicin, reference compound] | – | 9 ± 1 µM | 11 ± 1 µM | – | 2 | 9 | 9 | – | K562 cells in SubG1 phase (K562 cells; 1 μg/mL): 43.0 ± 1.0%; K562 cells in G2/M phase (K562 cells; 1 μg/mL): 2.2 ± 0.3%; K562 cells in S phase (K562 cells; 1 μg/mL): 8.8 ± 1.7%; K562 cells in G0/G1 phase (K562 cells; 1 μg/mL): 45.6 ± 0.8%; K562 cells in SubG1 phase (K562 cells; 5 μg/mL): 93.1 ± 0.7%; K562 cells in G2/M phase (K562 cells; 5 μg/mL): 0.2 ± 0.1%; K562 cells in S phase (K562 cells; 5 μg/mL): 0.8 ± 0.1%; K562 cells in G0/G1 phase (K562 cells; 5 μg/mL): 5.9 ± 0.6%
